One may read the IC50 as the concentration at which inhibition is half-maximal. A high value points to lower potency.

What all share (format): functional, cell-based
One assay relates to SK-OV-3. In words: Cytotoxicity against human SKOV3 cells after 48 hrs by SRB assay. Particulars: SK-OV-3, 48 h. For orientation: Sulforhodamine B stains cellular protein and so reports cell mass.
In the next assay the test system is HCT-15. Description: Cytotoxicity against human HCT15 cells after 48 hrs by SRB assay. The settings on record: HCT-15, 48 h.
A further assay deals with A549. Description: Cytotoxicity against human A549 cells after 48 hrs by SRB assay. The settings on record: A549, 48 h.
In the next assay the test system is SK-MEL-2. In words: Cytotoxicity against human SK-MEL-2 cells after 48 hrs by SRB assay. The settings on record: SK-MEL-2, 48 h.
Another assay deals with XF498. In words: Cytotoxicity against human XF498 cells after 48 hrs by SRB assay. The settings on record: XF498, 48 h.
The test system of assay [1] is HeLa. In words: Induction of mitochondrial apoptosis in human HeLa cells.
Assay [2] has as its system HeLa. In words: Cytotoxicity against human HeLa cells after 48 hrs by SRB assay.

Active and inactive are the calls of the source. The calls are words filed in the database; no cut-off is given here.

Turning to `CC1=C[C@@H]2/C=C/C[C@H](C)CCC[C@@H](O)/C=C/C(=O)[C@]23C(=O)N[C@@H](Cc2ccccc2)[C@@H]3[C@@H]1C` [DEOXAPHOMIN C], the 50% inhibitory concentration (IC50) in the assay on SK-OV-3 was 5.48 µM; with HCT-15, 8.43 µM; with A549, 8.58 µM; with SK-MEL-2, 6.66 µM.
Take `COc1cccc2c1C(=O)c1c(O)c3c(c(O)c1C2=O)C[C@@](O)(C(=O)CO)C[C@@H]3O[C@H]1C[C@H](N)[C@H](O)[C@H](C)O1` [DOXORUBICIN]: the IC50 with SK-OV-3 amounted to 0.002 µM; in the assay with HCT-15 it was 0.035 µM; with SK-MEL-2 it was 0.002 µM; in the assay with XF498, 0.015 µM.
On to `C[C@H]1C/C=C/[C@H]2[C@@H]3O[C@]3(C)[C@@H](C)[C@H]3[C@H](Cc4ccccc4)NC(=O)[C@]32OC(=O)/C=C/CCCC1`, for which the IC50 in the assay on SK-OV-3 was 4.19 µM; in the assay with HCT-15 it was 3.91 µM; in the assay on A549, 12.4 µM; with SK-MEL-2, 8.35 µM.
On the same counts, the results for `CC1=C(C)[C@H]2[C@H](Cc3ccccc3)NC(=O)[C@]23C(=O)/C=C/[C@H](O)CCC[C@@H](C)C/C=C/[C@H]3[C@@H]1O` [DEOXAPHOMIN B] are 13.9 µM, 29.3 µM, 23.2 µM and 12.4 µM.
In the case of `CC1=C(C)[C@H]2[C@H](Cc3ccccc3)NC(=O)[C@]23OC(=O)/C=C/[C@H](O)CCC[C@@H](C)C/C=C/[C@H]3[C@@H]1O`, the 50% inhibitory concentration (IC50) in the assay with SK-OV-3 was determined as 4.51 µM; in the assay on HCT-15, 5.76 µM; with A549 it was 5.99 µM; in the assay on SK-MEL-2, 5.28 µM; in the assay on XF498, 12.3 µM.
As to `C=C1[C@@H](C)[C@H]2[C@H](Cc3ccccc3)NC(=O)[C@]23OC(=O)/C=C/[C@H](O)CCC[C@@H](C)C/C=C/[C@H]3[C@@H]1O` [CYTOCHALASIN B], the IC50 in the assay with SK-OV-3 worked out at 0.46 µM; in the assay with HCT-15, 1.94 µM; in the assay on A549, 2.13 µM; in the assay on SK-MEL-2, 0.67 µM; in the assay on HeLa [2], 7.9 µM; in the assay with XF498, 2.36 µM. The outcome with HeLa [1] was Active. Moreover, the inhibition result in the assay with HeLa [2] was “Dose-dependent effect”.

For the origin of these results see ChEMBL document CHEMBL2016481, “Cytotoxic cytochalasins from the endozoic fungus Phoma sp. of the giant jellyfish Nemopilema nomurai” (Bioorg Med Chem Lett, 2012).
